Reference: ChEMBL document CHEMBL1130382, “Inhibition of thyroid hormone uptake by calcium antagonists of the dihydropyridine class” (J Med Chem, 1997)

Legend:
[1] = Partition coefficient (logP); conditions: octanol/water
HepG2 [2] = experiment: Inhibitory effect on L-triiodothyronine (L-T3) uptake by human HepG2 hepatoma cells at an application dose 10E-5 M; format: functional
HepG2 [3] = experiment: Compound tested for inhibitory effect on L-triiodothyronine (L-T3) uptake by human HepG2 hepatoma cells at an application dose 10E-5 (M); format: functional

| SMILES | logP [1] | I (HepG2 [2]) | I (HepG2 [3]) |
| --- | --- | --- | --- |
| CCOC(=O)C1=C(C)NC(C)=C(C(=O)OCC)C1c1cccc(O)c1 | 4.03 | 21.6% |  |
| CCOC(=O)C1=C(C)N=C(C)/C(=C(/O)OCC)C1c1cccc(OC)c1 (stereo not given) | 3.22 | 17.5% |  |
| CCOC(=O)C1=C(C)N=C(C)/C(=C(/O)OCC)C1c1cccc(I)c1 (stereo not given) | 4.48 |  | 33.2% |
| CC1=C(C#N)C(c2cccc([N+](=O)[O-])c2)C(C#N)=C(C)N1 | 1.45 | 53.8% |  |
| CCO/C(O)=C1\C(C)=NC(C)=C(C(=O)OC)C1c1cccc(C(F)(F)F)c1 (stereo not given) | 3.9 | 19.6% |  |
| CCOC(=O)c1c(C)nc(C)c(C(=O)OCC)c1-c1cccc([N+](=O)[O-])c1 | 3.1 | 28.4% |  |
| CCOC(=O)C1=C(C)N=C(C)/C(=C(/O)OCC)C1c1cccc(C)c1 (stereo not given) | 3.76 | 29.7% |  |
| CCO/C(O)=C1\C(C)=NC(C)=C(C(=O)OC)C1c1ccccc1C(F)(F)F (stereo not given) | 3.82 | 23.1% |  |
| CCOC(=O)C1=C(C)N=C(C)/C(=C(/O)OCC)C1c1ccc(I)cc1 (stereo not given) | 4.7 | 26.8% |  |
| CCO/C(O)=C1\C(C)=NC(C)=C(C(=O)OC)C1c1ccccc1[N+](=O)[O-] (stereo not given) | 2.51 | 41.4% |  |
| CCO/C(O)=C1\C(C)=NC(C)=C(C(=O)OC)C1c1ccc([N+](=O)[O-])cc1 (stereo not given) | 3.6 | 85.8% |  |
| c1ccc(Nc2ccccc2)cc1 [DIPHENYLAMINE] | 2.94 | 20.9% |  |
| c1ccc(Oc2ccccc2)cc1 [DIPHENYLETHER] | 3.83 | 22% |  |
| O=C(O)c1ccccc1Nc1ccccc1 [FENAMIC ACID] | 3.08 | 20.5% |  |
| COC(=O)C1=C(C)NC(C)=C(C(=O)OC)C1c1ccccc1[N+](=O)[O-] [NIFEDIPINE] |  | 80.5% |  |
| CCOC(=O)C1=C(C)NC(C)=C(C(=O)OC)C1c1cccc([N+](=O)[O-])c1 (stereo not given) [NITRENDIPINE] |  | 81.8% |  |
